Literature values in patent EP3572069A1, “INCREASING SOLUBILITY AND BIOAVAILABILITY OF ENZALUTAMIDE” (Zentiva K.S., priority 2018, dated 2019).

Legend:
[1] = background statement, no test described
[2] = not told

Solubility [1] | Permeability [2] | SMILES
very poorly soluble | – | CNC(=O)c1ccc(N2C(=S)N(c3ccc(C#N)c(C(F)(F)F)c3)C(=O)C2(C)C)cc1F [Crystalline enzalutamide, 4-(3-(4-cyano-3-(trifluoromethyl)phenyl)-5,5-dimethyl-4-oxo-2-thioxo-1-imidazolidinyl)-2-fluoro-N-methyl-benzamide]
dissolves better | – | CNC(=O)c1ccc(N2C(=S)N(c3ccc(C#N)c(C(F)(F)F)c3)C(=O)C2(C)C)cc1F [Amorphous form of enzalutamide, 4-(3-(4-cyano-3-(trifluoromethyl)phenyl)-5,5-dimethyl-4-oxo-2-thioxo-1-imidazolidinyl)-2-fluoro-N-methyl-benzamide]
– | high permeability | CNC(=O)c1ccc(N2C(=S)N(c3ccc(C#N)c(C(F)(F)F)c3)C(=O)C2(C)C)cc1F [Enzalutamide, 4-(3-(4-cyano-3-(trifluoromethyl)phenyl)-5,5-dimethyl-4-oxo-2-thioxo-1-imidazolidinyl)-2-fluoro-N-methyl-benzamide]
